This experiment deals with human NAMPT (Homo sapiens, UniProt P43490). The experiment is described as follows: Human recombinant enzyme assay (NMN fluorescence biochemical assay, activation of NAMPT). Put shortly: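 Activation of recombinant human NAMPT (6 nM) with 2.5 mM ATP, 20 μM PRPP and 150 μM nicotinamide in 50 mM HEPES pH 7.2, 1 mM DTT, 1 mM CHAPS, 50 mM NaCl, 100 mM MgCl2; 60 min, ambient temperature. NMN formed was derivatized with acetophenone/KOH/formic acid, fluorescence read at 355/460 nm after 40 min.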

Setting [1] is: Table A, human recombinant NAMPT, NMN formation, 60 min.
The mark [2] stands for this setting: Table A, human recombinant NAMPT, NMN formation, 60 min, read-out: EC50 Human.

In general, pEC50 refers to the negative decadic logarithm of the EC50, by convention in mol/L.

pEC50: −log10 of the molar value. Like-named read-outs stand apart in the source and are kept apart here.

human NAMPT, sequence (P43490 whole entry): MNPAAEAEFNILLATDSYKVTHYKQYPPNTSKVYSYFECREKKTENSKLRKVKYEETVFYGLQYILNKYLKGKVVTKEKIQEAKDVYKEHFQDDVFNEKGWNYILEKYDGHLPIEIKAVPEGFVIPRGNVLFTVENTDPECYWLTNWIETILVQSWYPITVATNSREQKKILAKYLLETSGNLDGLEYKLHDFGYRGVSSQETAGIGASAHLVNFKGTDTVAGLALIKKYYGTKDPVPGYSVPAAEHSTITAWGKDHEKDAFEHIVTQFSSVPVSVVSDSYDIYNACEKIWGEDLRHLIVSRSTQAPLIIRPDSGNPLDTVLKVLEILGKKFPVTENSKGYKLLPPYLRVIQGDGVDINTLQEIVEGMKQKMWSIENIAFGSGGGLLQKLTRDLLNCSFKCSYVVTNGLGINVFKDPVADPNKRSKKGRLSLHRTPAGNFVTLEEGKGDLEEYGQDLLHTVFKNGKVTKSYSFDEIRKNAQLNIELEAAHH

As for `COc1ccc(CNC(=O)NC2CC3(C2)CN(C(=O)c2ccc(C(C)(C)O)cc2)C3)cc1` [Compound 157, 1-(2-(4-(2-hydroxypropan-2-yl)benzoyl)-2-azaspiro[3.3]heptan-6-yl)-3-(4-methoxybenzyl)urea], the “AC1.4 Human” value under setting [1] worked out at 4.1 µM. Under setting [2], the pEC50 was 4.32.

Take `COc1ccc(CNC(=O)NC2CC3(C2)CN(C(=O)c2ccc(Cl)cc2)C3)cc1` [Compound 158, 1-(2-(4-chlorobenzoyl)-2-azaspiro[3.3]heptan-6-yl)-3-(4-methoxybenzyl)urea]: the “AC1.4 Human” value under setting [1] came to 2.7 µM. In addition, the pEC50 under setting [2] was 4.41.

As to `Cc1ccc(C(=O)N2CC[C@]3(C2)C[C@@H](NC(=O)NCc2ccc(Cl)cc2)C3)cc1` [Compound 159, 1-(4-chlorobenzyl)-3-((2r,4s)-6-(4-methylbenzoyl)-6-azaspiro[3.4]octan-2-yl)urea], the “AC1.4 Human” value under setting [1] worked out at 8.7 µM. Moreover, the pEC50 under setting [2] is 4.64.

`Cc1cc(C(=O)N2CC[C@]3(C2)C[C@@H](NC(=O)NCc2ccc(Cl)cc2)C3)ccn1` [Compound 160, 1-(4-chlorobenzyl)-3-((2r,4s)-6-(2-methylisonicotinoyl)-6-azaspiro[3.4]octan-2-yl)urea]: the “AC1.4 Human” value under setting [1] worked out at 13.6 µM. Besides, the pEC50 under setting [2] was 4.37.

`COc1ccc(C(=O)N2CC[C@]3(C2)C[C@@H](NC(=O)NCc2ccc(Cl)cc2)C3)cc1` [Compound 163, 1-(4-chlorobenzyl)-3-((2r,4s)-6-(4-methoxybenzoyl)-6-azaspiro[3.4]octan-2-yl)urea]: under setting [1], the “AC1.4 Human” value amounted to 12.4 µM. Further, the pEC50 under setting [2] was 4.55.

Turning to `COc1ccc(C(=O)N2CC[C@]3(C2)C[C@H](NC(=O)NCc2ccc(Cl)cc2)C3)cc1` [Compound 165, 1-(4-chlorobenzyl)-3-((2s,4r)-6-(4-methoxybenzoyl)-6-azaspiro[3.4]octan-2-yl)urea], the “AC1.4 Human” value under setting [1] came out at 15.9 µM. The pEC50 under setting [2] is 4.31.

Take `Cc1cnccc1C(=O)N1CC[C@]2(C1)C[C@@H](NC(=O)NCc1ccc(Cl)cc1)C2` [Compound 166, 1-(4-chlorobenzyl)-3-((2r,4s)-6-(3-methylisonicotinoyl)-6-azaspiro[3.4]octan-2-yl)urea]: under setting [1], the “AC1.4 Human” value was found to be 14.2 µM. Besides, under setting [2], the pEC50 is 4.37.

`O=C(NCc1ccc(Cl)cc1)N[C@H]1C[C@]2(CCN(C(=O)c3ccc(F)cc3)C2)C1` [Compound 167, 1-(4-chlorobenzyl)-3-((2r,4s)-6-(4-fluorobenzoyl)-6-azaspiro[3.4]octan-2-yl)urea]: the “AC1.4 Human” value under setting [1] is 11.8 µM. In addition, under setting [2], the pEC50 was 4.56.

As to `COC(=O)C1CC2(CC(NC(=O)NCc3ccc(Cl)cc3)C2)C1` (stereo not drawn) [Compound 168, methyl 6-(3-(4-chlorobenzyl)ureido)spiro[3.3]heptane-2-carboxylate], under setting [1], the “AC1.4 Human” value turned out to be 9.5 µM. The pEC50 (read-out: EC50 Human, Table A, human recombinant NAMPT, NMN formation, 60 min) is 4.41.

With `CC(C)c1cccc(C(=O)N2CC[C@]3(C2)C[C@@H](NC(=O)NCc2ccc(Cl)cc2)C3)c1` [Compound 169, 1-(4-chlorobenzyl)-3-((2r,4s)-6-(3-isopropylbenzoyl)-6-azaspiro[3.4]octan-2-yl)urea], the “AC1.4 Human” value under setting [1] came out at 7.1 µM. Under setting [2], the pEC50 is 5.03.

For the compound `O=C(NCc1ccc(Cl)cc1)N[C@H]1C[C@]2(CCN(c3ncccn3)C2)C1` [Compound 170, 1-(4-chlorobenzyl)-3-((2s,4r)-6-(pyrimidin-2-yl)-6-azaspiro[3.4]octan-2-yl)urea], the “AC1.4 Human” value under setting [1] worked out at 15.1 µM. Further, the negative logarithm of the EC50 (pEC50) under setting [2] is 4.33.

Turning to `Cc1cc(N2CC[C@]3(C2)C[C@@H](NC(=O)NCc2ccc(Cl)cc2)C3)ccn1` [Compound 171, 1-(4-chlorobenzyl)-3-((2r,4s)-6-(2-methylpyridin-4-yl)-6-azaspiro[3.4]octan-2-yl)urea], the “AC1.4 Human” value under setting [1] was 17.3 µM. Further, under setting [2], the pEC50 is 4.60.

On to `CCc1cccc(C(=O)N2CC3(CC(NC(=O)NCc4ccc(OC)cc4)C3)C2)c1` [Compound 172, 1-(2-(3-ethylbenzoyl)-2-azaspiro[3.3]heptan-6-yl)-3-(4-methoxybenzyl)urea], for which the pEC50 is 4.64. For the same compound, the “AC1.4 Human” value under setting [1] came out at 1.9 µM.

With `COc1ccc(CNC(=O)NC2CC3(C2)CN(C(=O)c2cccc(C(C)C)c2)C3)cc1` [Compound 173, 1-(2-(3-isopropylbenzoyl)-2-azaspiro[3.3]heptan-6-yl)-3-(4-methoxybenzyl)urea], the “AC1.4 Human” value under setting [1] was determined as 1.7 µM. For the same compound, under setting [2], the pEC50 was 4.69.

In the case of `COc1ccc(CNC(=O)NC2CC3(C2)CN(C(=O)c2cccc(C(C)(C)C)c2)C3)cc1` [Compound 174, 1-(2-(3-(tert-butyl)benzoyl)-2-azaspiro[3.3]heptan-6-yl)-3-(4-methoxybenzyl)urea], under setting [1], the “AC1.4 Human” value was 2.0 µM. The pEC50 under setting [2] is 4.53.

In the case of `COc1ccc(CNC(=O)NC2CC3(C2)CN(C(=O)c2cccc(C(C)(C)O)c2)C3)cc1` [Compound 175, 1-(2-(3-(2-hydroxypropan-2-yl)benzoyl)-2-azaspiro[3.3]heptan-6-yl)-3-(4-methoxybenzyl)urea], the “AC1.4 Human” value under setting [1] was 5.5 µM. Further, the pEC50 under setting [2] was 4.26.

As for `COc1ccc(CNC(=O)NC2CC3(C2)CN(C(=O)c2cccc(OC)c2)C3)cc1` [Compound 176], the “AC1.4 Human” value under setting [1] turned out to be 2.0 µM. Further, under setting [2], the negative logarithm of the EC50 (pEC50) was 4.66.

With `COc1ccc(CNC(=O)NC2CC3(C2)CN(C(=O)c2cccc(O)c2)C3)cc1` [Compound 177, 1-(2-(3-hydroxybenzoyl)-2-azaspiro[3.3]heptan-6-yl)-3-(4-methoxybenzyl)urea], the pEC50 was 4.95. Further, under setting [1], the “AC1.4 Human” value is 2.8 µM.

Regarding `COc1ccc(CNC(=O)NC2CC3(C2)CN(C(=O)c2cccc(N(C)C)c2)C3)cc1` [Compound 178, 1-(2-(3-(dimethylamino)benzoyl)-2-azaspiro[3.3]heptan-6-yl)-3-(4-methoxybenzyl)urea], the “AC1.4 Human” value under setting [1] was 3.1 µM. In addition, the pEC50 under setting [2] is 4.67.

As to `COc1ccc(CNC(=O)NC2CC3(C2)CN(C(=O)c2cccc(N4CCCC4)c2)C3)cc1` [Compound 179, 1-(4-methoxybenzyl)-3-(2-(3-(pyrrolidin-1-yl)benzoyl)-2-azaspiro[3.3]heptan-6-yl)urea], the pEC50 was 4.91. Moreover, the “AC1.4 Human” value under setting [1] was 0.8 µM.

`COc1ccc(CNC(=O)NC2CC3(C2)CN(C(=O)c2cccc(S(C)(=O)=O)c2)C3)cc1` [Compound 180, 1-(4-methoxybenzyl)-3-(2-(3-(methylsulfonyl)benzoyl)-2-azaspiro[3.3]heptan-6-yl)urea]: the “AC1.4 Human” value under setting [1] was determined as 7.8 µM. For the same compound, under setting [2], the pEC50 is 4.42.

On to `COC(=O)c1cccc(C(=O)N2CC3(CC(NC(=O)NCc4ccc(OC)cc4)C3)C2)c1` [Compound 181, methyl 3-(6-(3-(4-methoxybenzyl)ureido)-2-azaspiro[3.3]heptane-2-carbonyl)benzoate], for which the “AC1.4 Human” value under setting [1] is 3.0 µM. Under setting [2], the pEC50 is 4.53.

In the case of `Cc1cccc(N2CC[C@]3(C2)C[C@@H](NC(=O)NCc2ccc(Cl)cc2)C3)n1` [Compound 183, 1-(4-chlorobenzyl)-3-((2r,4s)-6-(6-methylpyridin-2-yl)-6-azaspiro[3.4]octan-2-yl)urea], under setting [1], the “AC1.4 Human” value stood at 11.2 µM. The pEC50 under setting [2] is 4.25.

On to `O=C(NCc1ccc(Cl)cc1)NC1CC2(C1)CC(NC(=O)c1cccnc1)C2` (stereo not drawn) [Compound 184, N-(6-(3-(4-chlorobenzyl)ureido)spiro[3.3]heptan-2-yl)nicotinamide], for which the “AC1.4 Human” value under setting [1] was found to be 10.0 µM. Also, the pEC50 under setting [2] was 4.42.
